Data published in patent publication US20200181117A1, “SUBSTITUTED 3-HETEROARYLOXY-1H-PYRAZOLES AND SALTS THEREOF AND THEIR USE AS HERBICIDAL ACTIVE SUBSTANCES” (BAYER CROPSCIENCE AKTIENGESELLSCHAFT, priority 2017, published 2020).

How the values were obtained:
Assay type in all cases: in vivo
Avena fatua = test: Pre-emergence herbicidal action; conditions: 1280 g/ha, scored visually after about 3 weeks vs untreated controls
How it was run: (§1)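 Covered seeds received aqueous suspension or emulsion of formulated compound at 1280 g/ha with 0.5% additive and 600 l/ha water. Pots grew under good greenhouse conditions, and after approximately 3 weeks the effect was estimated visually as a percentage, 100% denoting plants that died.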

Matricaria inodora = test: Pre-emergence herbicidal action; conditions: 1280 g/ha, scored visually after about 3 weeks vs untreated controls
How it was run: as §1

Veronica persica [1] = test: Pre-emergence herbicidal action; conditions: 1280 g/ha, scored visually after about 3 weeks vs untreated controls
How it was run: as §1

Viola tricolor [2] = test: Pre-emergence herbicidal action; conditions: 1280 g/ha, scored visually after about 3 weeks vs untreated controls
How it was run: as §1

Echinochloa crus-galli [3] = test: Pre-emergence herbicidal action; conditions: 1280 g/ha, scored visually after about 3 weeks vs untreated controls
How it was run: as §1

Setaria viridis [4] = test: Pre-emergence herbicidal action; conditions: 1280 g/ha, scored visually after about 3 weeks vs untreated controls
How it was run: as §1

Amaranthus retroflexus [5] = test: Pre-emergence herbicidal action; conditions: 1280 g/ha, scored visually after about 3 weeks vs untreated controls
How it was run: as §1

Polygonum convolvulus [6] = test: Pre-emergence herbicidal action; conditions: 1280 g/ha, scored visually after about 3 weeks vs untreated controls
How it was run: as §1

Abutilon theophrasti [7] = test: Pre-emergence herbicidal action; conditions: 1280 g/ha, scored visually after about 3 weeks vs untreated controls
How it was run: as §1

Alopecurus myosuroides [8] = test: Post-emergence herbicidal action; conditions: 1280 g/ha, rated visually after about 3 weeks vs untreated controls
How it was run: (§2)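 Visual rating against untreated plants, about 3 weeks post-treatment, on a 0-100% scale where 100% means plant death. Treatment: 1280 g/ha of WP/EC preparations with 0.5% additive in 600 l/ha water, sprayed on one-leaf-stage weeds grown in greenhouse sandy loam.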

Veronica persica [9] = test: Post-emergence herbicidal action; conditions: 1280 g/ha, rated visually after about 3 weeks vs untreated controls
How it was run: as §2

Viola tricolor [10] = test: Post-emergence herbicidal action; conditions: 1280 g/ha, rated visually after about 3 weeks vs untreated controls
How it was run: as §2

Setaria viridis [11] = test: Post-emergence herbicidal action; conditions: 1280 g/ha, rated visually after about 3 weeks vs untreated controls
How it was run: as §2

Pharbitis purpurea = test: Post-emergence herbicidal action; conditions: 1280 g/ha, rated visually after about 3 weeks vs untreated controls
How it was run: as §2

Amaranthus retroflexus [12] = test: Post-emergence herbicidal action; conditions: 1280 g/ha, rated visually after about 3 weeks vs untreated controls
How it was run: as §2

Stellaria media [13] = test: Post-emergence herbicidal action; conditions: 1280 g/ha, rated visually after about 3 weeks vs untreated controls
How it was run: as §2

Polygonum convolvulus [14] = test: Post-emergence herbicidal action; conditions: 1280 g/ha, rated visually after about 3 weeks vs untreated controls
How it was run: as §2

Abutilon theophrasti [15] = test: Post-emergence herbicidal action; conditions: 1280 g/ha, rated visually after about 3 weeks vs untreated controls
How it was run: as §2

Alopecurus myosuroides [16] = test: Pre-emergence herbicidal action; conditions: 1280 g/ha, scored visually after about 3 weeks vs untreated controls
How it was run: as §1

Stellaria media [17] = test: Pre-emergence herbicidal action; conditions: 1280 g/ha, scored visually after about 3 weeks vs untreated controls
How it was run: as §1

Hordeum murinum = test: Pre-emergence herbicidal action; conditions: 1280 g/ha, scored visually after about 3 weeks vs untreated controls
How it was run: as §1

Echinochloa crus-galli [18] = test: Post-emergence herbicidal action; conditions: 1280 g/ha, rated visually after about 3 weeks vs untreated controls
How it was run: as §2

Lolium rigidum = test: Pre-emergence herbicidal action; conditions: 1280 g/ha, scored visually after about 3 weeks vs untreated controls
How it was run: as §1

Compound	herbicidal activity on Avena fatua (Avena fatua)	herbicidal activity on Matricaria inodora (Matricaria inodora)	herbicidal activity on Veronica persica (Veronica persica [1])	herbicidal activity on Viola tricolor (Viola tricolor [2])	herbicidal activity on Echinochloa crus-galli (Echinochloa crus-galli [3])	herbicidal activity on Setaria viridis (Setaria viridis [4])	herbicidal activity on Amaranthus retroflexus (Amaranthus retroflexus [5])	herbicidal activity on Polygonum convolvulus (Polygonum convolvulus [6])	herbicidal activity on Abutilon theophrasti (Abutilon theophrasti [7])	herbicidal activity on Alopecurus myosuroides (Alopecurus myosuroides [8])	herbicidal activity on Veronica persica (Veronica persica [9])	herbicidal activity on Viola tricolor (Viola tricolor [10])	herbicidal activity on Setaria viridis (Setaria viridis [11])	herbicidal activity on Pharbitis purpurea (Pharbitis purpurea)	herbicidal activity on Amaranthus retroflexus (Amaranthus retroflexus [12])	herbicidal activity on Stellaria media (Stellaria media [13])	herbicidal activity on Polygonum convolvulus (Polygonum convolvulus [14])	herbicidal activity on Abutilon theophrasti (Abutilon theophrasti [15])	herbicidal activity on Alopecurus myosuroides (Alopecurus myosuroides [16])	herbicidal activity on Stellaria media (Stellaria media [17])	also measured
Cc1c(Sc2ccc(F)cc2)c(Oc2ncccn2)nn1C [Example I-087]	80%	90%	100%	100%	80%	100%	100%	90%	100%	90%	100%	100%	90%	80%	100%	100%	100%	80%	–	–	–
Cn1cc(Sc2ccccc2)c(Oc2ncc(Cl)cn2)n1 [Example I-120]	–	–	100%	100%	100%	–	80%	80%	100%	90%	80%	100%	80%	–	80%	90%	100%	–	90%	100%	–
Fc1ccc(Sc2c(Oc3ncc(F)cn3)nn3c2CCOCC3)cc1 [Example I-122]	80%	100%	100%	100%	100%	100%	100%	100%	100%	90%	90%	90%	100%	90%	–	90%	100%	100%	100%	100%	herbicidal activity on Hordeum murinum (Hordeum murinum): 90%; herbicidal activity on Echinochloa crus-galli (Echinochloa crus-galli [18]): 90%
CCc1c(Sc2ccc(F)cc2F)c(Oc2ncccn2)nn1C [Example I-136]	90%	100%	–	100%	90%	100%	100%	100%	100%	–	100%	100%	–	–	100%	90%	–	90%	100%	100%	herbicidal activity on Lolium rigidum (Lolium rigidum): 100%
CCc1c(Sc2ccccc2)c(Oc2ncc(F)cn2)nn1C [Example I-155]	100%	100%	–	100%	90%	100%	100%	–	100%	90%	100%	100%	80%	80%	100%	90%	–	80%	100%	100%	herbicidal activity on Lolium rigidum (Lolium rigidum): 80%; herbicidal activity on Hordeum murinum (Hordeum murinum): 100%
Fc1ccc(Sc2c(Oc3ncccn3)nn3c2CCOCC3)c(F)c1 [Example I-163]	–	100%	90%	100%	100%	100%	90%	100%	100%	90%	80%	90%	90%	90%	–	80%	100%	90%	90%	90%	herbicidal activity on Hordeum murinum (Hordeum murinum): 90%; herbicidal activity on Echinochloa crus-galli (Echinochloa crus-galli [18]): 90%
